From PubChem BioAssay (NCI)
“And” between values parts separate entries of the source, which are not always exact repeats. Equal entries are not always repeated.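 Dose response: 5 concentrations. Exposure: 48 h. Format: 96-well plates. Endpoint: linear interpolation; highest concentration if not reached. GI50: concentration for 50% inhibition of growth. At the TGI there is no net growth.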

Experiments:
Experiment in all cases: inhibition of tumour cell growth, NCI panel, 48 h
A549 NSCLC = system: A549 NSCLC
HOP-92 NSCLC = system: HOP-92 NSCLC
M14 melanoma = system: M14 melanoma
MCF7 breast = system: MCF7 breast
OVCAR-5 ovarian = system: OVCAR-5 ovarian
SF-295 CNS = system: SF-295 CNS
SK-MEL-2 melanoma = system: SK-MEL-2 melanoma
SK-MEL-28 melanoma = system: SK-MEL-28 melanoma
SN12C renal = system: SN12C renal
UACC-257 melanoma = system: UACC-257 melanoma

Compound	GI50 (A549 NSCLC) [µM]	TGI (A549 NSCLC)	GI50 (HOP-92 NSCLC) [µM]	TGI (HOP-92 NSCLC) [µM]	GI50 (M14 melanoma) [µM]	TGI (M14 melanoma) [µM]	GI50 (MCF7 breast) [µM]	TGI (MCF7 breast) [µM]	GI50 (OVCAR-5 ovarian)	TGI (OVCAR-5 ovarian)	GI50 (SF-295 CNS) [µM]	TGI (SF-295 CNS)	GI50 (SK-MEL-2 melanoma) [µM]	TGI (SK-MEL-2 melanoma) [µM]	GI50 (SK-MEL-28 melanoma) [µM]	TGI (SK-MEL-28 melanoma)	GI50 (SN12C renal) [µM]	TGI (SN12C renal)	GI50 (UACC-257 melanoma) [µM]	TGI (UACC-257 melanoma)
Nc1ncnc2c1ncn2C1SC(CO)C(O)C1O (stereo not given)	26.6	73.4 µM	13.6	52.4	21	55.6	3.21	31.6	> 100 µM	> 100 µM	20.1	52.6 µM	78.8	> 100	56.5	> 100 µM	19.3	62.3 µM	> 100	> 100 µM
COc1cc2nc(NC3CCC3)nc(NC3CCN(C(C)C)CC3)c2cc1OC	3.08	14.5 µM	1.46	3.64	1.88	3.46	2.96	13	4.01 µM	19.1 µM	1.87	3.67 µM	1.9	3.79	1.94	3.66 µM	3.92	16.1 µM	1.89	3.78 µM
Cc1ccc(CNc2ccc(Cl)cc2NCc2ccc(C)c(O)c2)cc1O	8.13	15.3 µM	6.91	14.2	5.78	12.6	6.18	14.3	8.32 µM	16.2 µM	8.24	15.2 µM	6.82	14.5	7.21	14.2 µM	6.95	14 µM	8.12	15.6 µM
CC[C@@]12CC(C(=O)OC)=C3Nc4ccccc4[C@@]34CCN(C[C@H]3O[C@H]31)[C@@H]24	58.3	> 100 µM	17.7	> 100	31.7	> 100	46	> 100	> 100 µM	> 100 µM	36.7	> 100 µM	25.1	> 100	86.2	> 100 µM	> 100	> 100 µM	66.7	> 100 µM
O=C(/C=C/c1ccccc1)c1ccccn1		46.1 µM and > 100 µM		53		29.9		37.1	11.5 µM and 24.2 µM	29 µM and > 100 µM		33.9 µM and 59.9 µM		43.8		40.7 µM and 81.5 µM		27.3 µM and 31.8 µM		26.9 µM and 32.3 µM
CC1(C)CC[C@]2(C(=O)O)CC[C@]3(C)C(=CC[C@@H]4[C@@]5(C)C/C(=C/c6cccnc6)[C@H](O)C(C)(C)[C@@H]5CC[C@]43C)[C@@H]2C1	3.65	> 100 µM	2.22	10.1	16.7	51.3	5.25	> 100	11.2 µM	44 µM	4.3	87.4 µM	17	66.1	11.1	35 µM	4.7	> 100 µM	24.9	92.8 µM
CCn1nc(C#Cc2c(C)ccc3c(Nc4ccc(Cl)cc4)nccc23)c2c(N)ncnc21	4.58	> 100 µM	1.79	9.06	2.89	> 100	2.49	> 100	9.19 µM	> 100 µM	2.48	11.6 µM	1.92	6.53	3.36	> 100 µM	3.84	> 100 µM	3.54	38.7 µM
N=C(N)c1ccc(-c2ccc(-c3cccs3)s2)cc1F	0.0305	1.27 µM	0.576	2.21	1.45	2.97	0.5	2.26	1.02 µM	2.36 µM	0.39	1.78 µM	1.94	3.65	1.45	3.09 µM	1.63	3.69 µM	1.77	3.43 µM
O=C(c1ccco1)c1c(C(F)(F)F)n([O-])c2cc(Cl)c(Cl)cc2[n+]1=O	1.04	2.55 µM	0.851	2.15	0.715	1.46	0.123	0.452	0.935 µM	1.76 µM	0.247	0.825 µM	3.07	8.89	2.97	6.45 µM	0.65	1.41 µM	0.761	2.15 µM
NC1=Nc2cc(OCCCCN3Cc4ccccc4C3)c(OCC3CC3)cc2C12CCCC2	1.99	4.84 µM	0.873	2.71	1.77	3.51	1.37	2.99	2.3 µM	6.4 µM	1.94	3.83 µM	1.84	3.49			1.7	3.41 µM	1.62	3.48 µM
CS(=O)c1cc(=O)c2ccccc2s1 (stereo not given)		38.3 µM		6.7		3.12		14.4		18.2 µM		32.6 µM		24.7		8.97 µM		13.2 µM		7.26 µM
COc1cnc2c(c1)C(=O)c1c-2n(CCCN2CCNCC2)c(=O)c2cc(F)ccc12	0.0164	0.219 µM	0.139	2.95	0.366	1.88	0.0345	1.41	0.334 µM	1.51 µM			1.71	3.37	1.52	3.03 µM	0.0806	0.89 µM	1.29	2.69 µM
CC(C)OC(=O)OCOP(=O)(OCOC(=O)OC(C)C)C1CCCN(O)C1=O (stereo not given)	4.01	> 100 µM	0.566	7.91	2.67	> 100	1.52	> 100	5.25 µM	> 100 µM	7.14	> 100 µM	3.1	20.4	0.739	7.83 µM	0.281	> 100 µM	49.1	> 100 µM
CC(C)c1c(C(=O)Nc2ccccc2)c(-c2ccccc2)c(-c2ccc(F)cc2)n1CC[C@@H](O)C[C@@H](O)CC(=O)O	56.5	> 100 µM	0.211	2.14	19.1	> 100	27.5	> 100	57.2 µM	> 100 µM	6.74	> 60.6 µM	2.24	7.49	18.2	> 100 µM	7.56	> 100 µM	41.5	> 100 µM
CNC(=S)N/N=C/CSC/C=N/NC(=S)NC	> 100	> 100 µM	> 100	> 100	> 100	> 100	1.85	> 100	> 100 µM	> 100 µM	> 100	> 100 µM	> 100	> 100	> 100	> 100 µM	> 100	> 100 µM	> 100	> 100 µM
COc1cc(-c2nn(-c3cccc(NC(=O)NCCNC(=O)c4ccccc4)c3)cc2-c2ccncc2)ccc1Cl	4.57	> 100 µM	2.63	> 100	2.88	> 100	2.22	> 100	3.78 µM	> 100 µM	1.63	4.57 µM	2.34	5.43	3.04	> 100 µM	0.556	> 100 µM	3.96	21.1 µM
O=c1[nH]c(-c2ccncc2)nc2sc3c(c12)CCCCCC3	> 100	> 100 µM	> 100	> 100	> 100	> 100	> 100	> 100	> 100 µM	> 100 µM			> 100	> 100	> 100	> 100 µM	> 100	> 100 µM	> 100	> 100 µM
Cc1cc(C)c(CNC(=O)c2cc(Cl)c3c(c2C)O[C@@](C)(C2CCC(N(C)C)CC2)O3)c(=O)[nH]1 (stereo not given in full)	71.6	> 100 µM	18.4	> 100	33.8	> 100	49.5	> 100	> 100 µM	> 100 µM	> 100	> 100 µM	> 100	> 100	> 100	> 100 µM	> 100	> 100 µM	95.3	> 100 µM
c1c[nH]c(CN2CCN(Cc3ncc[nH]3)CC2)n1		> 100 µM		> 100		> 100		> 100		> 100 µM		> 100 µM		> 100		> 100 µM		> 100 µM		> 100 µM
